Experimental data taken from patent US12194050B2, “Thiadiazine derivatives” (RICHTER GEDEON NYRT., priority 2018, dated 2025).

Target: human α7 nAchR (Homo sapiens (Human), UniProt P36544)
Assay: Human α7 nicotinic acetylcholine receptor [Ca2+]i assay (PAM, Ca2+ fluorometry)
Format: cell-based
Settings: Flp-In 293 cells expressing human α7 nAchR and human RIC-3; in presence of saturating agonist (mostly PNU-282987, 1 μM)
Procedure: Biological Activity Human α7 Nicotinic Acetylcholine Receptor [Ca^2+]i Assay
Cells: Flp-In 293 cells stably expressing human α7 nAchR and human RIC-3 (α7 cells, generated in house.)
Materials: 96-well plates coated with PDL (Falcon), culture medium, assay buffer, DMSO, FLIPR Calcium 5 kit (Molecular Devices), probenecid, agonist and PAM test compounds.
Brief Description of the Method (Ca^2+ Fluorometry)
α7 cells stably expressing human α7 nAchR were cultured in the medium detailed above, and were split twice a week. For the fluorometric measurements of cytosolic Ca^2+ ion concentration ([Ca^2+]i) cells were seeded in 96-well microplates at a density of 60000 cells/well and maintained overnight in a tissue culture incubator at 37° C. under an atmosphere of 95% air/5% CO2. The plating medium was identical with the culture medium. 50 μl of the growth medium was aspirated with a cell washer (BioTek Elx405UCVWS). Then 50 μl/well Calcium 5 kit diluted 2-fold in assay buffer was added manually using an 8-channel pipette. After an incubation period (20 minutes, 37° C.) 50 μl/well assay buffer containing vehicle (DMSO, 4% added) or reference α7 PAMs (4×of the final concentration) were added manually and the cells were incubated for an additional 10 minutes at 37° C. Baseline and agonist-evoked [Ca2+]i-changes were monitored with FlexStation II (Molecular Devices, Sunnyvale, Calif.), a plate reader fluorometer with integrated 8-channel fluid addition capability. Fluorescence measurements were carried out at 37° C. The dye was excited at 485 nm, emission was sampled at 525 nm at 1.4-s intervals. Baseline was recorded for 20 seconds followed by agonist stimulation. 50 μl 4× concentrated agonist solution was added to the cells using the pipettor of FlexStation II and fluorescence was monitored for an additional 40 seconds. Final DMSO concentration was 1% for all treatments. To achieve this, a series of DMSO stock solutions were prepared from all test compounds. These stocks were stored under 0° C. and were further diluted in assay buffer to obtain the desired final concentration immediately before the measurement. Agonist and PAM concentration-response studies were conducted in the presence of saturating concentrations of PAMs (mostly PNU-120596, 5 μM) and agonists (mostly PNU-282987, 1 μM), respectively. Results were expressed as ΔF/F values using SoftMax Pro software (Molecular Devices), where F was the resting fluorescence preceding agonist application and ΔF was the increase in fluorescence at a given time (ΔF=maximum fluorescence intensity values after stimulation minus average fluorescence intensity values before stimulation). In all experiments, all treatments were measured in multiple wells in parallel, and the mean ΔF/F values were used for analysis.

human α7 nAchR, sequence (P36544 23-502): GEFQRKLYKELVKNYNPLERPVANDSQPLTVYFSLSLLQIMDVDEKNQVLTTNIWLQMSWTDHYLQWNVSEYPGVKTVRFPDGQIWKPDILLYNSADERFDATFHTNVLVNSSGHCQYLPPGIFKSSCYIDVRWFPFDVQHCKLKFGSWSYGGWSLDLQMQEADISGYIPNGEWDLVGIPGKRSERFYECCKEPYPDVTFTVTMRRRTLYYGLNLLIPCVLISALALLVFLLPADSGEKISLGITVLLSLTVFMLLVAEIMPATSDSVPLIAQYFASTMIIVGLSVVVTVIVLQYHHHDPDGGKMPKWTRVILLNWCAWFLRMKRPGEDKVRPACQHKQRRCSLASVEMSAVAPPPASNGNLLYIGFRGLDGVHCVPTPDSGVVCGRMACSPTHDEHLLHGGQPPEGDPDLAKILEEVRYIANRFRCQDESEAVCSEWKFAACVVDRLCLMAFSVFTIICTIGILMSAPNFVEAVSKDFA

Structure (SMILES) | EC50 [nM]
COc1ccc(C2=NS(=O)(=O)N(C)C(C(=O)Nc3cccc(C(F)(F)F)c3)=C2)cc1OC [Example 12] | 230
CCN1C(C(=O)Nc2ccc(C)c(Cl)c2)=CC(c2ccc(OC)c(OC)c2)=NS1(=O)=O [Example 30] | 440
CCN1C(C(=O)Nc2ccc(C)c(C)c2)=CC(c2ccc(OC)c(OC)c2)=NS1(=O)=O [Example 34] | 130
CCN1C(C(=O)Nc2cccc(C(F)(F)F)c2)=CC(c2ccc(C(F)(F)F)c(OC)c2)=NS1(=O)=O [Example 48] | 330
COc1ccc(C2=NS(=O)(=O)N(C(C)C)C(C(=O)Nc3cc(Cl)ccn3)=C2)cc1OC [Example 110] | 640
COc1ccc(C2=NS(=O)(=O)N(C)C(C(=O)Nc3cccc(C#N)c3)=C2)cc1OC [Example 8] | 1800
CC(C)N1C(C(=O)Nc2cccc(F)n2)=CC(C2CCC(F)(F)CC2)=NS1(=O)=O [Example 127] | 580
CCN1C(C(=O)Nc2cccc(C(F)(F)F)n2)=CC([C@H]2CC3C[C@@H]3C2)=NS1(=O)=O (stereo partly drawn) [Example 71] | 140
CCN1C(C(=O)Nc2cccc(Cl)c2)=CC(c2ccc(OC)c(C)c2)=NS1(=O)=O [Example 47] | 500
CC(C)N1C(C(=O)Nc2cccc(C(F)(F)F)n2)=CC([C@H]2CC[C@H](C(F)(F)F)CC2)=NS1(=O)=O [Example 93] | 120
CCN1C(C(=O)Nc2ccnc(C(F)(F)F)c2)=CC([C@H]2CC[C@H](C(F)(F)F)CC2)=NS1(=O)=O [Example 88] | 1400
COCCN1C(C(=O)Nc2cccc(C(F)(F)F)n2)=CC(C2CCC(F)(F)CC2)=NS1(=O)=O [Example 130] | 960
O=C(Nc1ccc(F)cn1)C1=CC([C@H]2CC[C@H](C(F)(F)F)CC2)=NS(=O)(=O)N1CC1CC1 [Example 133] | 230
COc1ccc(C2=NS(=O)(=O)N(CC3CC3)C(C(=O)Nc3cccc(C(F)(F)F)n3)=C2)cc1OC [Example 103] | 110
O=C(Nc1cccc(F)n1)C1=CC([C@H]2CC[C@H](C(F)(F)F)CC2)=NS(=O)(=O)N1CC1CC1 [Example 132] | 35
CCN1C(C(=O)Nc2ccc(Cl)c(OC)c2)=CC(c2ccc(OC)c(OC)c2)=NS1(=O)=O [Example 35] | 150
COc1ccc(C2=NS(=O)(=O)N(C)C(C(=O)Nc3ccnc(C)c3)=C2)cc1OC [Example 15] | 3000
CCCN1C(C(=O)Nc2cccc(C(F)(F)F)n2)=CC(c2ccc(OC)c(OC)c2)=NS1(=O)=O [Example 95] | 45
COc1ccc(C2=NS(=O)(=O)N(C(C)C)C(C(=O)Nc3cccc(C(F)(F)F)c3)=C2)cc1OC [Example 89] | 290
CCN1C(C(=O)Nc2cccc(C#N)n2)=CC([C@H]2CC[C@H](C(F)(F)F)CC2)=NS1(=O)=O [Example 76] | 85

Structure (SMILES) | EC50 [nM]
COc1ccc(C2=NS(=O)(=O)N(C)C(C(=O)Nc3ccc(C)cc3)=C2)cc1OC [Example 14] | 1400
CCN1C(C(=O)Nc2cccc(C(F)(F)F)c2F)=CC([C@H]2CC[C@H](C(F)(F)F)CC2)=NS1(=O)=O [Example 57] | 2000
CCCN1C(C(=O)Nc2cccc(C(F)(F)F)c2)=CC(c2ccc(OC)c(C(F)(F)F)c2)=NS1(=O)=O [Example 115] | 85
CCN1C(C(=O)Nc2cccc(C(F)(F)F)n2)=CC(C2CC=CC2)=NS1(=O)=O [Example 75] | 960
CCc1cccc(NC(=O)C2=CC(c3ccc(OC)c(OC)c3)=NS(=O)(=O)N2C)c1 [Example 5] | 210
C=CCN1C(C(=O)Nc2ccc(OC)cc2)=CC(c2ccc(OC)c(OC)c2)=NS1(=O)=O [Example 120] | 120
COc1ccc(C2=NS(=O)(=O)N(CC3CC3)C(C(=O)Nc3cccc(Cl)c3)=C2)cc1OC [Example 104] | 370
CCN1C(C(=O)Nc2ccc(OC(F)(F)F)cc2)=CC(c2ccc(OC)c(OC)c2)=NS1(=O)=O [Example 32] | 720
CCN1C(C(=O)Nc2ccnc(C(F)(F)F)n2)=CC([C@H]2CC[C@H](C(F)(F)F)CC2)=NS1(=O)=O [Example 64] | 330
CCCN1C(C(=O)Nc2cccc(C(F)(F)F)n2)=CC(c2ccc(OC)c(Cl)c2)=NS1(=O)=O [Example 101] | 65
COc1ccc(C2=NS(=O)(=O)N([C@@H]3CCOC3)C(C(=O)Nc3cccc(C(F)(F)F)n3)=C2)cc1OC [Example 84] | 130
COc1cccc(NC(=O)C2=CC(c3ccc(OC)c(OC)c3)=NS(=O)(=O)N2C)c1 [Example 10] | 670
CCN1C(C(=O)Nc2cccc(F)n2)=CC(C2CCC(F)(F)CC2)=NS1(=O)=O [Example 70] | 620
CCN1C(C(=O)Nc2cccc(C(F)(F)F)c2)=CC([C@H]2CC3C[C@@H]3C2)=NS1(=O)=O (stereo partly drawn) [Example 52] | 1600
CCN1C(C(=O)Nc2cccc(C(F)(F)F)n2)=CC([C@H]2CC[C@H](C)CC2)=NS1(=O)=O [Example 67] | 220
CCN1C(C(=O)Nc2cccc(C(F)(F)F)n2)=CC(C2CCCCCC2)=NS1(=O)=O [Example 66] | 430
COc1cc(C2=NS(=O)(=O)N(C)C(C(=O)Nc3cccc(C)c3)=C2)ccc1Cl [Example 28] | 1200
CCc1ccc(NC(=O)C2=CC(c3ccc(OC)c(OC)c3)=NS(=O)(=O)N2C)cc1 [Example 6] | 1300
CCCN1C(C(=O)Nc2cccc(C(F)(F)F)n2)=CC(c2ccc(OC)c(C(F)(F)F)c2)=NS1(=O)=O [Example 97] | 30
CCN1C(C(=O)Nc2cncc(C(F)(F)F)n2)=CC([C@H]2CC[C@H](C(F)(F)F)CC2)=NS1(=O)=O [Example 60] | 300

Structure (SMILES) | EC50 [nM]
COc1ccc(C2=NS(=O)(=O)N(CC(F)(F)F)C(C(=O)Nc3cccc(C(F)(F)F)c3)=C2)cc1OC [Example 118] | 530
CCN1C(C(=O)Nc2cccc(C(F)F)n2)=CC([C@H]2CC[C@H](C(F)(F)F)CC2)=NS1(=O)=O [Example 80] | 350
CCN1C(C(=O)Nc2ccc(OC)c(Cl)c2)=CC(c2ccc(OC)c(OC)c2)=NS1(=O)=O [Example 36] | 310
COc1ccc(C2=NS(=O)(=O)N(C)C(C(=O)Nc3cccc(C)c3)=C2)cc1C [Example 24] | 210
O=C(Nc1ccnc(C(F)(F)F)n1)C1=CC([C@H]2CC[C@H](C(F)(F)F)CC2)=NS(=O)(=O)N1CC1CC1 [Example 137] | 130
COc1ccc(C2=NS(=O)(=O)N(C)C(C(=O)Nc3ccc(C)c(Cl)c3)=C2)cc1OC [Example 13] | 340
COc1ccc(C2=NS(=O)(=O)N(C)C(C(=O)Nc3ccn4nccc4c3)=C2)cc1OC [Example 7] | 2000
CCN1C(C(=O)Nc2cccc(C(F)(F)F)c2)=CC(c2ccc(OC)c(C(F)(F)F)c2)=NS1(=O)=O [Example 39] | 150
COc1ccc(C2=NS(=O)(=O)N(C(C)C)C(C(=O)Nc3cccc(Cl)c3)=C2)cc1OC [Example 92] | 290
COc1ccc(NC(=O)C2=CC(c3ccc(OC)c(OC)c3)=NS(=O)(=O)N2CC2CC2)cc1 [Example 116] | 100
COc1ccc(C2=NS(=O)(=O)N(C)C(C(=O)Nc3cccc(C(F)(F)F)c3)=C2)cc1C [Example 23] | 400
CC(C)N1C(C(=O)Nc2cncc(C(F)(F)F)n2)=CC([C@H]2CC[C@H](C(F)(F)F)CC2)=NS1(=O)=O [Example 124] | 110
CCN1C(C(=O)Nc2cccc(C(F)(F)F)n2)=CC(c2ccc(OC)c(C(F)(F)F)c2)=NS1(=O)=O [Example 87, 2-ethyl-5-[4-methoxy-3-(trifluoromethyl)phenyl]-1,1-dioxo-N-[6-(trifluoromethyl)pyridin-2-yl]-2H-1λ^6,2,6-thiadiazine-3-carboxamide] | 10
COc1ccc(C2=NS(=O)(=O)N(C)C(C(=O)Nc3cccc(C)n3)=C2)cc1OC [Example 16] | 1400
COc1ccc(C2=NS(=O)(=O)N(C)C(C(=O)Nc3cccc(Cl)c3)=C2)cc1OC [Example 20] | 940
CN1C(C(=O)Nc2cccc(F)n2)=CC(C2CCC(F)(F)CC2)=NS1(=O)=O [Example 56] | 2500
COc1ccc(C2=NS(=O)(=O)N(C)C(C(=O)Nc3cccc(F)c3)=C2)cc1OC [Example 19] | 1600
COc1ccc(C2=NS(=O)(=O)N(C(C)C)C(C(=O)Nc3cccc(F)n3)=C2)cc1OC [Example 123] | 55
O=C(Nc1cccc(F)n1)C1=CC(C2CCC(F)(F)CC2)=NS(=O)(=O)N1CC1CC1 [Example 135] | 120
COc1ccc(C2=NS(=O)(=O)N(CC3CC3)C(C(=O)Nc3cccc(C(F)(F)F)c3)=C2)cc1OC [Example 102] | 320
